Data set [1] addresses T1, Endothelin receptor type B (Rattus norvegicus, UniProt P21451).
T1 sequence (P21451 whole entry): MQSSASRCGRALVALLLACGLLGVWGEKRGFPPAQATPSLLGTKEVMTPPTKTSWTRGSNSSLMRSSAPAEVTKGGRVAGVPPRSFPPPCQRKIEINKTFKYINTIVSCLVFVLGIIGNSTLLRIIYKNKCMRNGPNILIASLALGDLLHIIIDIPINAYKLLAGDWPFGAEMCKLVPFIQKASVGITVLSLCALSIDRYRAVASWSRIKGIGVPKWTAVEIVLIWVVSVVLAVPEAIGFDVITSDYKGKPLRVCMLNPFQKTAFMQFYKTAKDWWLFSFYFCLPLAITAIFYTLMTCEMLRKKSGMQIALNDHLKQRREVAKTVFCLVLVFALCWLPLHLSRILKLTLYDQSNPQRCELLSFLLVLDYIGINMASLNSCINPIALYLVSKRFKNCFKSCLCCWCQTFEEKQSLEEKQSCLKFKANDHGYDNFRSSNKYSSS
The experiment in a line: In vitro inhibition of [125-I] labelled ET-1 endothelin binding to Endothelin B receptor in rat cerebellum. It is filed as tissue-based.

Data set [2] addresses T2, Endothelin-1 receptor (Rattus norvegicus, UniProt P26684).
T2 sequence (P26684 whole entry): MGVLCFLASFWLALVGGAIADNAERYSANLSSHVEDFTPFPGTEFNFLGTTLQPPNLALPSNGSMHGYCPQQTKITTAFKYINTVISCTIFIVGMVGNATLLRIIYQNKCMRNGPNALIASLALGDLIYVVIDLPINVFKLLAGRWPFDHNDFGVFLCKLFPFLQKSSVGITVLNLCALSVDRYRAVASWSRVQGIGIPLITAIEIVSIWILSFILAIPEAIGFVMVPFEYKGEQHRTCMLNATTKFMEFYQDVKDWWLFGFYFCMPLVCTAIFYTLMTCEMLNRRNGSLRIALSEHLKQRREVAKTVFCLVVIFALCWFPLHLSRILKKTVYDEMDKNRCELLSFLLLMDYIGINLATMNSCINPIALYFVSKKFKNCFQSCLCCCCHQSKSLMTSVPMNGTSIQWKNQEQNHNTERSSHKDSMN
The data set is described as follows: In vitro inhibition of endothelin binding to endothelin A receptor in rat heart ventricles was measured using a 125-I labelled ET-1 competition assay.

Data set [3] has as its target T2, Endothelin-1 receptor. The data set is described as follows: In vitro inhibition of endothelin binding to Endothelin A receptor in rat heart ventricles was measured using 125-I labelled ET-1 competition assay; No measurable affinity.
Data set [4] deals with T1, Endothelin receptor type B. The data set is described as follows: In vitro inhibition of endothelin binding to Endothelin B receptor in rat cerebellum was measured using 125-I labelled ET-1 competition assay; No measurable affinity. The format is tissue-based.
Data set [5] can be described thus: pKa was determined in ethanol:water (1:1) system. It is filed as physicochemical.

By IC50 is commonly meant the concentration that inhibits the measured activity by half. Low readings indicate greater potency, high ones weaker potency. Broadly, the pKa is the pH at which an ionisable group is half protonated. A high value points to a group that holds its proton tightly.

Turning to `COc1cccc(Cn2nc(-c3ccccc3)c(Cc3cc4c(cc3Cl)OCO4)c2C(=O)O)c1`, the results for the IC50 (in data set [1]; on Endothelin-1 receptor [2]) were 0.034 µM and 0.018 µM, respectively.

Take `COc1cccc(Cn2nc(C(F)(F)F)c(Cc3ccc4c(c3)OCO4)c2OCC(=O)O)c1`: the IC50 amounted to 2.2 µM in data set [1] and 0.45 µM on Endothelin-1 receptor [2].

For `COc1cccc(Cn2nc(-c3ccccc3)c(Cc3ccc4c(c3)OCO4)c2C(=O)O)c1`, the IC50 in data set [1] amounted to 0.04 µM; on Endothelin-1 receptor [2], 0.028 µM.

For the compound `COc1cccc(Cn2nc(C(F)(F)F)c(Cc3ccc4c(c3)OCO4)c2OCCO)c1`, the IC50 was above 25 µM in data set [1] and 40 µM on Endothelin-1 receptor [2].

Consider `CCOC(=O)COc1c(Cc2ccc3c(c2)OCO3)c(C(F)(F)F)nn1Cc1cccc(OC)c1`, for which the IC50 entry (on Endothelin-1 receptor [3]; in data set [4]) was “Not Active” throughout.

As to `COc1cccc(Cn2nc(C(F)(F)F)c(Cc3ccc4c(c3)OCO4)c2OC)c1`, the IC50 result (on Endothelin-1 receptor [3]; in data set [4]) was “Not Active” each time. The same compound yielded a pKa in data set [5] of 6.

On to `COc1cccc(Cn2[nH]c(C(F)(F)F)c(Cc3ccc4c(c3)OCO4)c2=O)c1`, for which the 50% inhibitory concentration (IC50) in data set [1] came out at 11 µM. This lies in the double-digit micromolar range.

Regarding `O=c1c(Cc2ccc3c(c2)OCO3)c(C(F)(F)F)[nH]n1Cc1ccccc1Cl`, the IC50 in data set [1] came to 25 µM; on Endothelin-1 receptor [2] it was 3.8 µM.

Take `COc1cccc(Cn2[nH]c(C(F)(F)F)c(Cc3cc(OC)c(OC)c(OC)c3)c2=O)c1`: the IC50 result (on Endothelin-1 receptor [3]; in data set [4]) was “Not Active” in each case.

On to `O=c1c(Cc2ccc3c(c2)OCO3)c(C(F)(F)F)[nH]n1Cc1ccc2c(c1)OCO2`, for which the half-maximal inhibitory concentration (IC50) in data set [1] came out at 17 µM; on Endothelin-1 receptor [2], 5.6 µM.

Regarding `COc1cccc(Cn2[nH]c(C(F)(F)F)c(Cc3ccc(F)cc3)c2=O)c1`, the half-inhibitory concentration (IC50) at Endothelin-1 receptor [2] was 40 µM; in data set [4], “Not Active”.

As for `COc1cccc(Cn2[nH]c(C(F)(F)F)c(Cc3ccc(Cl)cc3)c2=O)c1`, the values for the IC50 (in data set [1]; at Endothelin-1 receptor [2]) were 22 µM and 4.3 µM, respectively.

On to `COc1cccc(Cn2[nH]c(C(F)(F)F)c(Cc3cc4c(cc3Cl)OCO4)c2=O)c1`, for which the results for the IC50 (in data set [1]; at Endothelin-1 receptor [2]) were 2.4 µM and 0.6 µM, respectively.

For `O=c1c(Cc2ccc3c(c2)OCO3)c(C(F)(F)F)[nH]n1Cc1cccc(O)c1`, the IC50 in data set [1] is 36 µM; on Endothelin-1 receptor [2], 1.7 µM.

Turning to `COc1cccc(Cn2[nH]c(C(F)(F)C(F)(F)C(F)(F)F)c(Cc3ccc4c(c3)OCO4)c2=O)c1`, the results for the IC50 (in data set [1]; on Endothelin-1 receptor [2]) were 1 µM and 0.14 µM, respectively.

On to `COc1ccc(Cc2[nH]n(Cc3cccc(OC)c3)c(=O)c2Cc2ccc3c(c2)OCO3)cc1`, for which the IC50 turned out to be 24 µM in data set [1] and 7.5 µM at Endothelin-1 receptor [2].

As to `COc1ccccc1Cn1[nH]c(C(F)(F)F)c(Cc2ccc3c(c2)OCO3)c1=O`, the figures for the IC50 (in data set [1]; at Endothelin-1 receptor [2]) were 33 µM and 1.8 µM, respectively.

Take `COc1cccc(Cn2[nH]c(C(F)(F)F)c(Cc3ccc(OC)c(OC)c3)c2=O)c1`: the IC50 result (on Endothelin-1 receptor [3]; in data set [4]) was “Not Active” in each case.

As for `COc1cccc(Cn2[nH]c(-c3ccccc3)c(Cc3ccc4c(c3)OCO4)c2=O)c1`, the IC50 was determined as 3.2 µM in data set [1] and 0.42 µM on Endothelin-1 receptor [2].

Take `COc1ccc(Cn2[nH]c(C(F)(F)F)c(Cc3ccc4c(c3)OCO4)c2=O)c(OCC(=O)O)c1`: the IC50 in data set [1] turned out to be 12 µM; at Endothelin-1 receptor [2], 3.8 µM.

For `COc1cccc(Cn2[nH]c(C(F)(F)F)c(Cc3cc(Cl)c4c(c3)OCO4)c2=O)c1`, the IC50 came to 5.4 µM in data set [1] and 1.3 µM on Endothelin-1 receptor [2].

Take `COc1ccc(Cc2c(C(F)(F)F)[nH]n(Cc3cccc(OC)c3)c2=O)cc1`: the IC50 in data set [1] was 39 µM; on Endothelin-1 receptor [2] it was 48 µM.

`COc1cccc(Cn2[nH]c(C(F)(F)C(F)(F)F)c(Cc3ccc4c(c3)OCO4)c2=O)c1`: the IC50 in data set [1] was found to be 3.3 µM; on Endothelin-1 receptor [2], 0.11 µM.

For the compound `COc1ccc(Cn2[nH]c(C(F)(F)F)c(Cc3ccc4c(c3)OCO4)c2=O)cc1`, the IC50 was 9.2 µM in data set [1] and 2.1 µM at Endothelin-1 receptor [2].

`O=C(O)COc1cccc(Cn2[nH]c(C(F)(F)F)c(Cc3ccc4c(c3)OCO4)c2=O)c1`: the IC50 in data set [1] is 29 µM; on Endothelin-1 receptor [2], 3.5 µM.

Regarding `COc1cccc(Cn2[nH]c(C(F)(F)F)c(Cc3ccc(Cl)c(Cl)c3)c2=O)c1`, the IC50 in data set [1] was 8.4 µM; at Endothelin-1 receptor [2], 10 µM.

On to `O=c1c(Cc2ccc3c(c2)OCO3)c(C(F)(F)F)[nH]n1Cc1cccc(Cl)c1`, for which the IC50 is 14 µM in data set [1] and 1.9 µM at Endothelin-1 receptor [2].

In the case of `COc1cccc(Cn2[nH]c(C(F)(F)F)c(Cc3ccccc3)c2=O)c1`, the IC50 was 98 µM on Endothelin-1 receptor [2] and “Not Active” in data set [4].

As to `O=c1c(Cc2ccc3c(c2)OCO3)c(C(F)(F)F)[nH]n1Cc1ccccc1`, the IC50 was 24 µM in data set [1] and 10 µM at Endothelin-1 receptor [2].

As for `COc1cccc(Cn2[nH]c(C)c(Cc3ccc4c(c3)OCO4)c2=O)c1`, the IC50 on Endothelin-1 receptor [2] is 20 µM; in data set [4] it was “Not Active”.

As for `COc1cccc(Cn2[nH]c(-c3ccc([N+](=O)[O-])cc3)c(Cc3ccc4c(c3)OCO4)c2=O)c1`, the IC50 came to 15 µM in data set [1] and 3.1 µM at Endothelin-1 receptor [2].

As to `COc1cccc(Cn2nc(C(F)(F)F)c(Cc3ccc4c(c3)OCO4)c2OCCCC(=O)O)c1`, the values for the IC50 (at Endothelin-1 receptor [2]; in data set [4]) were 64 µM and “Not Active”, respectively.

The record behind these values is ChEMBL document CHEMBL1133200, “Nonpeptide endothelin antagonists: from lower affinity pyrazol-5-ols to higher affinity pyrazole-5-carboxylic acids” (Bioorg Med Chem Lett, 2000).
